Publication PMC10054428, “Turning a Tumor Microenvironment Pitfall into Opportunity: Discovery of Benzamidoxime as PD-L1 Ligand with pH-Dependent Potency” (International Journal of Molecular Sciences, 2023)
Entries after “also recorded” stand apart in the source; their conditions may differ. Like-named read-outs stand apart in the source and are kept apart here.

Columns and labels:
[1] = biological target: T1, NT650/PD-L1 (recombinant human PD-L1) (Homo sapiens, UniProt Q9NZQ7); assay: Full-point MST binding assay (Kd) at pH 7.2 and 6.2; details: for BEI (pH 6.2) / BEI: BEI = pKd/MW (kDa); for BEI: pH 7.2; for delta increment of BEI: pH 6.2 versus pH 7.2
T1 construct: purchased Abcam ab167713
T1 sequence (Q9NZQ7 19-290): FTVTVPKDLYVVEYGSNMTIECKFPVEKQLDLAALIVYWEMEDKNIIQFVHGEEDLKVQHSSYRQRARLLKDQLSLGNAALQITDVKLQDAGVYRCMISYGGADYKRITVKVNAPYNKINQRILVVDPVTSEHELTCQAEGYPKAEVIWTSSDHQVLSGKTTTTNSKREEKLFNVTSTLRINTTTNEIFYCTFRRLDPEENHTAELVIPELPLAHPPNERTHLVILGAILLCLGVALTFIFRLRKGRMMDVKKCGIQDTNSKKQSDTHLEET
Procedure: These compounds were next tested in full ligand binding assays against NT650/PD-L1 at pH 7.2, using the scalar concentration of each compound to obtain binding curves and the relative dissociation constants (Kd).
(§1) Biophysical Binding Assays. A lyophilized form of the recombinant human PD-L1 protein was purchased from Abcam (ab167713, Abcam, Cambridge, UK) and reconstituted by adding sterile deionized water to reach a theoretical concentration of 400 µg/mL in PBS (PBS7.2: 50 mM KH2PO4, 0.05% Tween 20, pH 7.2). […] Then, the protein was labeled with a fluorescent dye using the Protein Labelling Kit RED-NHS (NT650, NanoTemper Technologies GmbH, Munich, Germany) and a 1:4 ratio (protein:dye). […] The unbounded fluorophore was removed by a size-exclusion chromatography column using a PBS7.2 storage buffer (pH 7.2). The removal of the unbounded fluorophore was also repeated by conditioning the size-exclusion chromatography column with a phosphate buffer at pH 6.2 (PBS6.2: 50 mM KH2PO4, 0.05% Tween 20, pH 6.2).
(§2) Ligand binding experiments were performed using MST (Monolith NT.115; NanoTemper Technologies GmbH, Munich, Germany). This method is based on the principle of thermophoresis, which is the movement of a biomolecular complex in a temperature gradient depending on the size, charge, and hydration shell that typically change upon ligand/target interaction. The selected 10 highly soluble fragments were purchased from Life Chemicals. […] A vehicle of DMSO 2% was used as negative control.
Each compound was tested starting the 1:1 dilution from a 1 mM concentration in MST buffer (PBS7.2 and PBS6.2) with 2% DMSO. An amount of 10 µL solution of 100 nM NT650/PD-L1 was added to each compound dilution and mixed to halve the final concentration of each component, including 2% DMSO, and reach a reaction volume of 20 µL. After incubating the mixtures for 30 min, samples were loaded into 16 premium-coated capillary tubes for MST analysis. MST signals were recorded for each capillary at medium laser power and 40% LED power, choosing the manual mode with 19/20s hot region.
The Binding Efficiency Index (BEI) was calculated using the following equation [Equation (1)] [43]:BEI = pKd/MW (kDa)(1)
(§3) In all binding experiments and ligand binding displacement assays, raw data were analyzed using MO.Affinity analysis software v2.3 (NanoTemper Technologies GmbH, Munich, Germany). Kd values were extrapolated by compound concentration-dependent changes of the NT650/PD-L1 F-norm signals using MO.Affinity analysis software v2.3.
(§4) MST experiments were carried out using a Monolith NT.115 instrument (NanoTemper Technologies GmbH, Munich, Germany).

[2] = biological target: T1, NT650/PD-L1 (recombinant human PD-L1); assay: Single-point MST binding assay; details: 250 µM compound; for Single-point binding result (in words): NT650/PD-L1; for Binder (single-point binder flag): 50 nM NT650/PD-L1, pH 7.2, F-norm outside vehicle ± 3 SD
Procedure: Putative hit compounds were defined as those molecules inducing a thermophoretic movement of the ligand-bound complex with a fluorescent signal (F-norm) outside the signal value and three-fold standard deviations of the negative control (vehicle, DMSO).
as §1, §2
Single-point binding assays were carried out, recording the MST signal for each capillary at medium laser power and 40% LED power, choosing the manual mode with a 19/20 s hot region. Each experiment was repeated three times employing premium-coated capillaries.

[3] = pKa by potentiometric titration (SiriusT3); assay type: physicochemical; details: 25 °C, n.3
Description: The first value (pKa1) corresponds to the deprotonated state of the protonated oxime nitrogen atom, entailing the neutral form. The second value (pKa2) is associated to the deprotonation of the oxime hydroxyl group, providing the anionic form of the compound. The presence of electron-withdrawing and/or -donating groups on the benzene ring may affect these values, entailing different stabilities of the cationic, neutral, and anionic species at a given pH. Accordingly, we used a potentiometric titration method to determine the pKa values of VIS310 and its analogues (9, 16–20).
Table 3 reports the experimental pKa values of BMS-202 (5), VIS310 (9), and its analogues (16–20), as obtained using SiriusT3 instrument. […] Therefore, the very high pKa value corresponding to the deprotonation of the oxime hydroxyl group was not experimentally determined in the compounds. Conversely, one or two pKa values were obtained, depending on the presence of a phenol moiety in the benzamidoxime derivatives. […] This is more evident with the insertion of the para hydroxyl group in the compounds VIS1201 (17; pKa1 = 5.35), VIS1202 (18; pKa1 = 5.38), VIS1203 (19; pKa1 = 5.38), and VIS310 (9; pKa1 = 5.65). These latter compounds show also a second value of the acid dissociation constant (pKa2) that corresponds to the deprotonated state of the phenolic group, entailing the anionic form of the compound. […] At pH 7.2, the microspecies adopting a neutral form increases, whereas the cationic form decreases, and a minor part of the microspecies starts adopting an anionic form (Figures S2 and S3, supplementary material).
Physicochemical Property Evaluations. Acidic constants (calcpKa) of compounds were calculated using the calculator plugin Marvin (v20.11, 2021; ChemAxon, Budapest, Hungary).
Each experiment was performed by specifying the sample weight, number of expected pKa values, calculated pKa (calcpKa) values, titration mode, and number of titrations (n.3). In order to measure the pKa of a compound, a sample concentration of 1 mM was prepared and dissolved, adding methanol as the co-solvent. […] Titrations of compounds 16–20 were performed using a ratio of 45%, 40%, 35% methanol. The Yasuda–Shedlovsky method was chosen to extrapolate aqueous pKa values. The R^2 value was used to evaluate the validity of the assay with a co-solvent, and the results were considered acceptable with a R^2 value ≥ 0.9 (Table S3, supplementary material). The accuracy of the pKa assay was also evaluated using the buffer index profile of the analyte. Specifically, the buffering capacity signal of the analyte must be above the intrinsic buffering capacity of water in order to have an accurate potentiometric measurement. Results were analyzed using Sirius T3 software v1.1.3.

[4] = biological target: T2, PD-1/PD-L1 complex (Homo sapiens, UniProt Q9NZQ7); assay: Ligand binding displacement assay of PD-1/PD-L1 complex (MST); details: pH 6.2, 50 and 100 μM
T2 construct: purchased Abcam ab167713 (PD-L1)
T2 sequence (Q9NZQ7 19-238 limits assumed, one chain of several): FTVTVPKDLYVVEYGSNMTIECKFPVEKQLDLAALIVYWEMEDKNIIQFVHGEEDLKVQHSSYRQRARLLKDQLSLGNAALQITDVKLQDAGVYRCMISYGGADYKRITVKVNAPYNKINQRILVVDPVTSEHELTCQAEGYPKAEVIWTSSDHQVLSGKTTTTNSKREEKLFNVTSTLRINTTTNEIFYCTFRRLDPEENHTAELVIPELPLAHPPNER
Procedure: This study was carried out with MST.
Ligand binding displacement assays were carried out with MST. […] The reconstitution of the protein was done by adding sterile deionized water to achieve a final concentration of 1 mg/mL in PBS7.2. […] The protein was tested starting the 1:1 dilution from a 26 μM concentration in MST buffer (PBS6.2) with 2% DMSO. […] After incubating the mixtures for 40 min in the dark, samples were loaded into 16 premium-coated capillary tubes for MST analysis. MST signals were recorded for each capillary at medium laser power and 80% LED power, choosing the Default on Time (DoT) mode with 4/5s hot region.
as §3, §4

[5] = design: method as in PMID 25621618; details: UV/vis titration, cited from earlier work
[6] = pH 7.2, n.3, read-out: Kd ± c.v.
[7] = pH 6.2, n.3, read-out: Kd ± c.v.
[8] = oxime nitrogen atom, methanol co-solvent, Yasuda–Shedlovsky extrapolation, read-out: pKa1
[9] = phenolic group (9, 17–19), secondary amine group (5), read-out: pKa2

Row | Compound | Kd [1, 6] [µM] | Kd [1, 7] [µM] | BEI (pH 6.2) [1] | pKa [3, 8] | Single-point binding result (in words) [2] | other results
1 | NCCSc1c[nH]c2ccccc12 [VIS284] | > 250 | – | – | – | hit compounds | –
2 | NCc1n[nH]c(=O)c2ccccc12 [VIS285] | > 250 | – | – | – | at the borderline of the definition criterion | Binder (single-point binder flag) [2]: x/o
3 | [H]/N=C1\NC(=O)[C@H](CC(=O)Nc2cccc3ccccc23)S1 [VIS303] | > 250 | – | – | – | hit compounds | –
4 | Cc1cc(/C(N)=N/O)cc(C)c1O [VIS310] | 164 | 47.8 | 24.0 | 5.65 ± 0.01 | hit compounds | BEI [1]: 21.0; pKa [3, 9]: 9.32 ± 0.02
5 | O=C(NCc1ccc(F)cc1)c1ccc2nc[nH]c2c1 [VIS545] | > 250 | – | – | – | at the borderline of the definition criterion | Binder (single-point binder flag) [2]: x/o
6 | Cc1ccc(Cn2c(S)nc3c2c(=O)n(C)c(=O)n3C)cc1 [VIS826] | > 250 | – | – | – | – | –
7 | O=C(O)c1cccc2c1-c1ccccc1OC2 [VIS877] | > 250 | – | – | – | – | –
8 | C[C@]1(O)CC[C@@H]1N1CC2CCCCC2C1 (some centres unmarked) [VIS1079] | – | – | – | – | at the borderline of the definition criterion | Kd ([1]; Kd ± c.v., pH 7.2, n.3): > 250 µM; Binder (single-point binder flag) [2]: x/o
9 | NC(=NO)c1ccccc1 [benzamidoxime] | – | – | – | – | – | pKa2 ([5]; oxime hydroxyl group): 12.36; pKa1 ([5]; protonated oxime nitrogen): 4.85

More lines, main results first:

Row | Kd [1, 6] [µM] | Kd [1, 7] [µM] | BEI (pH 6.2) [1] | pKa [3, 8] | Compound | Single-point binding result (in words) [2] | other results
10 | > 250 | – | – | – | COC(=O)c1ccc(C)c2c1-c1ccccc1OC2 [VIS879] | – | –
11 | > 1000 | 95.6 ± 20.6 | 24.5 | 5.26 ± 0.01 | Cc1cc(C)cc(C(=N)NO)c1 [VIS1200] | – | –
12 | > 1000 | 45.2 ± 10.6 | 28.6 | 5.35 ± 0.12 | N=C(NO)c1ccc(O)cc1 [VIS1201] | – | delta increment of BEI [1]: +8.9; BEI [1]: 19.7; pKa [3, 9]: 8.64 ± 0.01; Inhibition of PD-1/PD-L1 interaction (in words) [4]: dose-dependently inhibits the PD-1/PD-L1 interaction; also recorded: dose-dependently inhibit the formation of the PD-1/PD-L1 complex
13 | > 1000 | 55.4 ± 9.86 | 25.6 | 5.38 ± 0.01 | Cc1cc(C(=N)NO)ccc1O [VIS1202] | – | pKa [3, 9]: 8.97 ± 0.03
14 | > 1000 | 54.9 ± 8.2 | 25.7 | 5.38 ± 0.01 | Cc1cc(O)ccc1C(=N)NO [VIS1203] | – | pKa [3, 9]: 9.17 ± 0.02
15 | 148 ± 71.3 | 70.8 ± 12.7 | 19.6 | 5.3 ± 0.01 | N=C(NO)c1ccccc1-c1ccccc1 [VIS1204] | – | delta increment of BEI [1]: +1.5; BEI [1]: 18.1
16 | > 250 | – | – | – | Nc1[nH]ncc1-c1ccc(F)cc1F [VIS32926] | at the borderline of the definition criterion | Binder (single-point binder flag) [2]: x/o
